The values that follow come from US12076331B2, “Inositol derivatives for use in pathological crystallization” (ETH Zurich, priority 2015, dated 2024).

For the experiment, the system named is RPTEC/TERT 1 human proximal tubule cells. Put plainly: Imaging assay of CaP adhesion/deposition and cellular changes on RPTEC monolayers. It counts as cell-based. An excerpt: (A) Heatmap and hierarchical clustering of extracted image features. (B) Selected single features describing cellular changes upon increasing (OEG2)2-IP4 concentrations are depicted. Total cell count, dead cell count, single cell area and single cell solidity, a measure of cell compactness, are shown. (C) Selected single features describing changes in the CaP deposition and membrane pattern upon increasing (OEG2)2-IP4 concentrations are depicted. The total area of the binary calcein staining, colorimetric quantification of calcium content extracted from the monolayer, the maximum intensity of the calcein fluorescence, structural similarity index metric (SSIM) and the correlation of the CellMask channel image are shown. (D) Example brightfield, calcein, CellMask and EthD channel images and two zoomed-in regions of interests (ROI) of RPTEC treated with 13 μM (OEG2)2-IP4 are shown. Mean scaled values per individual experiment are plotted (N=3). Pos.ctrl presents treatment with 5/7 mM Ca/P, neg.ctrl presents medium without Ca/P spiking (=1/1 mM Ca/P present in normal cell medium). Mean of three individual experiments and SD is plotted as grey horizontal and vertical line respectively, one-way ANOVA with Dunnet's multiple comparison between each concentration to pos. ctrl was performed (* p<0.01).
RPTEC/TERT 1 monolayers at confluence were treated with medium spiked with 7 mM disodium phosphate, 5 mM calcium chloride and compound and were incubated for 24 h. The amount of CaP deposits and the extent of cell injury were detected by calcein and EthD staining, respectively. Fluorescence images were quantified using Matlab. Quantification of the area covered with CaP deposition on RPTEC monolayers with (A) OEG2-IP5, (B) OEG11-IP5, (C) (OEG2)2-IP4, and (D) OEG8-(IP5)2 treatment. (N=3, mean+SD, one-way ANOVA with Dunnett's multiple comparison, * p<0.05, ** p<0.01, *** p<0.001).
RPTEC/TERT 1 human proximal tubule cells (RPTEC) were cultured in T75 tissue culture flasks using ProxUp basal medium mixed with ProxUp supplements at 37° C. and 5% CO2 according to manufacturer's recommendations. Cells were used up to passage 30 and regularly tested for Mycoplasma infections. For experiments, RPTEC were cultured in 24-well plates at a seeding density of 150′000 cells/cm^2. Cell viability assessment and cell counting before seeding was performed using an automated cell counter (BioRad TC 20, Hercules, CA, USA).
For the comparison of selected IP6 analogues, ProxUp basal medium was prepared with the selected inhibitor and added to each well. Then, CaP precipitation was induced by direct addition of first, phosphate and second, calcium. Final concentrations of 7 mM phosphate and 5 mM calcium were used. Cells were incubated for 24 h at 37° C. and 5% CO2. Spiked medium was removed, and cells were washed twice with PBS before staining.
For staining, ProxUp basal medium was mixed with calcein (500 nM final concentration), EthD (6 μM final concentration), CellMask stain ([…]) and Hoechst 33342. Staining mixture was added to RPTEC and cells were incubated for 30 min in the dark at 37° C. and 5% CO2. Staining solution was removed, cells were washed with PBS once and ProxUp basal medium was added. Cells were immediately imaged after staining. Images were obtained by epifluorescence microscopy at 37° C., using a Leica CTR6000 microscope. For quantification 3 wells/condition were prepared and 3 images/well were taken. For preliminary adhesion experiments images were taken with a 10× objective, for the imaging assay 20× objective images were taken.
Multichannel images were saved as individual channel images in 8-bit tiff format. For analysis Hoechst channel images were thresholded using the triangle threshold. Touching nuclei of the binary image were further segmented using the watershed algorithm with the distance transform of the binary image as input and local maxima thereof as seeds. […]

[1] abbreviates: 6-50 μM, 5/7 mM Ca/P, compared to the positive ctrl.
[2] abbreviates: RPTEC, 7 mM phosphate, 5 mM calcium, 24 h.

Consider `COCCOCCO[C@@H]1C(OP(=O)(O)O)[C@H](OCCOCCOC)[C@@H](OP(=O)(O)O)C(OP(=O)(O)O)[C@H]1OP(=O)(O)O` (stereo partly shown) [(OEG2)2-IP4], for which, under setting [1], the “number of dead cells” value is “dose-dependently reduced”, the single cell area entry is “dose-dependently reduced”, the single cell solidity result is “increased” and the “total cell count/field of view” value is reported as “increased”. Besides, the “total CaP area” value (6 and 13 μM, 5/7 mM Ca/P, compared to the positive ctrl) was “reduction”. Also, under setting [2], the “concentration achieving complete inhibition of CaP adhesion” value came out at 50 µM and the “concentration down to which CaP adhesion was drastically reduced” value came out at 12.5 µM.
